The values that follow come from article PMC11121358, “Redox Properties of Bacillus subtilis Ferredoxin:NADP^+ Oxidoreductase: Potentiometric Characteristics and Reactions with Pro-Oxidant Xenobiotics” (International Journal of Molecular Sciences, 2024).

In the test the target is T1, Bacillus subtilis ferredoxin:NADP^+ oxidoreductase (BsFNR) (Bacillus subtilis, UniProt O05268).
T1 construct: gene yumC
The experiment in a line: steady-state product inhibition of NADPH:plumbagin reductase reaction. The class given is biochemical.

T1 sequence (O05268 whole entry): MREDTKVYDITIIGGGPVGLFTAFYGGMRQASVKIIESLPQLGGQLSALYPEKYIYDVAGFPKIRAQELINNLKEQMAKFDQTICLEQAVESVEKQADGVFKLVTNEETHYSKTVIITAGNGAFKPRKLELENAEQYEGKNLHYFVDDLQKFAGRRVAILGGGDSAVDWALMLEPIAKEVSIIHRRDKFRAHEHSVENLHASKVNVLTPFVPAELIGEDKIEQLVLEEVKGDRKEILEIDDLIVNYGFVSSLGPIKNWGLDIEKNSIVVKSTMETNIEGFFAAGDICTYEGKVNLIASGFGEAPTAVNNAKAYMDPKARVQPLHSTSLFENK

In general, Ki refers to the dissociation constant of the complex between target and ligand, obtained from inhibition or displacement. A higher Ki goes with a looser hold on the target. Regarding `NC(=O)c1ccc[n+]([C@@H]2O[C@H](COP(=O)(O)OP(=O)(O)OC[C@H]3O[C@@H](n4cnc5c(N)ncnc54)[C@H](OP(=O)(O)O)[C@@H]3O)[C@@H](O)[C@H]2O)c1` [NADP^+], the Ki turned out to be 62.6 ± 10.5 µM.
